From patent US20210393742A1, “LONG-ACTING INTERLEUKIN-15 RECEPTOR AGONIST IN COMBINATION WITH ANOTHER PHARMACOLOGICALLY ACTIVE AGENT” (Nektar Therapeutics, priority 2018, published 2021)

Experiments:
NK cells [1] = test: Granzyme B expression per cell in bone marrow NK cells of Daudi lymphoma bearing mice (Example 11); format: in vivo; conditions: bone marrow day 24; Conjugate 1 0.3 mg/kg; antibody 0.5 mg/kg
Protocol: (§1) Balb/c mice bearing Daudi B cell lymphoma tumors in the bone marrow (n=6/group) were intraperitoneally administered a single 0.5 mg/kg dose of the human CD38 protein targeting clinical antibody daratumumab (DARZALEX®), Janssen Biotech) or a nonspecific control antibody with a matching isotype on day 14 after Daudi cell intravenous inoculation. Additional groups were treated with (i) mono(mPEG-N-butanamide)40 kD interleukin-15 (Conjugate 1) administered subcutaneously at a dose of 0.3 mg/kg as a single agent on days 14 and 21 after Daudi cell inoculation, or (ii) a combination treatment of Conjugate 1 administered subcutaneously at doses of 0.03 mg/kg or 0.3 mg/kg on days 14 and 21 after Daudi cell inoculation and daratumumab administered intraperitoneally at a dose of 0.5 mg/kg on day 14 after Daudi cell inoculation.
(§2) Three days following the second Conjugate 1 administration (day 24 after Daudi inoculation), bone marrow was collected and the NK cell fraction was measured by flow cytometry in total bone marrow.

[2] = test system: HCT-116 colorectal carcinoma cells; test: Tumor growth inhibition and delay in HCT-116 colorectal carcinoma xenograft model (Example 19); format: in vivo, mice
Protocol: Tumor growth inhibition was evaluated on day 19 after treatment initiation.
The tumor growth delay was evaluated by measuring tumor volume quadrupling time (TVQT) from baseline tumor volume on treatment initiation day.

NK cells [3] = test: NKG2A and NKG2D surface expression on bone marrow NK cells of Daudi lymphoma bearing mice (Example 4); format: in vivo; conditions: bone marrow day 24; Conjugate 1 0.3 mg/kg SC days 14 and 21; antibody 0.5 mg/kg IP day 14
Protocol: as §1, with “(DARZALEX®,” for “(DARZALEX®),”, “administered mono(methoxyPEG-N-butanamide)40” for “treated with (i) mono(mPEG-N-butanamide)40”, “1)” for “1) administered”, “administered” for “(ii)”
as §2, with “marrow. Expression of the cell surface activating receptor NKG2D and the inhibitory checkpoint receptor NKG2A are shown in FIGS. 7A and 7B, respectively.” for “marrow.”

CD56+ human NK cells = test: Dose response of human NK cell proliferation in CFSE labeled PBMCs (Example 8); format: cell-based; conditions: 5 days
Protocol: Human peripheral blood mononuclear cell (PBMCs) labeled with a CFSE preparation were incubated for 5 days in vitro in the presence of increasing doses of rhIL-15 (dose range 1 ng/ml-100 ng/ml, 5 point, 3 fold dilutions) or a long-acting IL-15 receptor agonist (mono(mPEG-butanamide)IL-15) (dose range 10 ng/ml-1000 ng/ml, 5 point, 3 fold dilutions). After the incubation period, cell proliferation as indicated by the decrease of CFSE in the cells that had undergone cell doublings was measured with flow cytometry measuring CFSE levels in CD56+ human NK cells within the PBMCs preparation.

Daudi B cell lymphoma = test: Survival in Daudi B cell lymphoma xenograft model, combination with rituximab (Example 1); format: in vivo, mice; conditions: after about 35 days; agonist 0.3 mg/kg, days 14 and 17
Protocol: At day 0, SCID mice were intravenously injected with 1×10^7 Daudi cells. The mice were divided into four groups. On days 14 and 17 post-Daudi cell injection, the groups were treated by injection as follows: Group 1: isotype control antibody, Group 2: 40 mg/kg IP rituximab, Group 3: 0.3 mg/kg mono(methoxyPEG-N-butanamide)40 kD interleukin-15 (a long-acting IL-15 receptor agonist), Group 4: 40 mg/kg IP rituximab and 0.3 mg/kg SC mono(methoxyPEG-N-butanamide)40 kD interleukin-15 (combination).
The survival rate was determined by measuring the onset of hind limb paralysis as a surrogate parameter.

KHYG-1 cells = test: KHYG-1 cell proliferation, CellTiter-Glo 2.0 (Example 7); format: cell-based, human; conditions: 48 hours
Protocol: KHYG-1 cells were cultured in RPMI-1640 medium supplemented with 20% FBS, 2 mM L-glutamine, and 20 ng/mL IL-2 (Complete growth medium) in a humidified incubator at 37° C. and 5% CO2.
One day prior to treatment with test compounds, cells were seeded at a density of 500,000 viable cells/ml in Complete growth medium and incubated overnight under normal growth conditions. On the day of the assay, KHYG-1 cells were washed 3 times with DPBS, resuspended in assay medium (RPMI-1640 medium supplemented with 20% FBS, 2 mM L-glutamine), and incubated for 4-5 hours at 37° C., 5% CO2. Cells were adjusted to the appropriate density (8×10^5 cells/mL) in assay medium and 50,000 cells/well were aliquoted into wells of a 96-well plate (View-Plate 96, Perkin-Elmer).
Stimulation of KHYG-1 cells was initiated by the transfer of IL-15 or a long-acting IL-15 receptor agonist (mono(mPEG-butanamide)IL-15) to duplicate wells containing cells, followed by 48 hours incubation at 37° C., 5% CO2.
Cell growth in each well was measured by monitoring ATP levels using CellTiter-Glo 2.0, following the manufacturer's instructions. The effect of the long-acting IL-15 receptor agonist on KHYG-1 cell proliferation was compared to IL-15 following 48-hour treatment using CellTiter-Glo 2.0 with the results shown in FIG. 10B.

“mono(methoxyPEG-N-butanamide)40 kD interleukin-15 [Conjugate 1]” was tested, and the “Granzyme B mean fluorescence intensity (MFI mean value)” value (NK cells [1]) was 2649, the “Relative Granzyme B expression compared to untreated condition” value (NK cells [1]) was 6.7x increase and the tumor growth inhibition ([2]; day 19 after treatment initiation, cetuximab 40 mg/kg IP x6, Compound 1 0.3 mg/kg IV x3) was 31%. The “tumor growth delay (TVQT)” value ([2]; tumor volume quadrupling time from baseline) was 26%, the “% NK cells expressing NKG2A (mean, n = 6)” value (NK cells [3]) was 73.70% and the “% NK cells expressing NKG2D (mean, n = 6)” value (NK cells [3]) was 2.157%. For the same substance, the “EC50 (ng/ml)-% proliferation” value (CD56+ human NK cells) was 39.04 ng/mL, the Emax-% proliferation (CD56+ human NK cells) was 71.6% and the “potency in inducing human NK cell proliferation, fold less than rhIL-15” value (CD56+ human NK cells) was “approximately 17 fold”. The survival (Daudi B cell lymphoma) was 0% and the maximal proliferative response (KHYG-1 cells) was “comparable to the response produced by IL-15”.
